# Measurements reported in US6924278B2, “Aroyl-piperazine derivatives, their preparation and their use as tachykinin antagonists” (Fujisawa Pharmaceutical Co., Ltd., priority 1997, dated 2005).
# Counter-ions that a name gives are not always drawn.
# Target: T1, h-NK1 receptors (Homo sapiens, UniProt P25103)
# T1 construct: expressed in transfected cells; host or cells: CHO cells (permanent expression), crude cell membranes
# Assay: Evaluation of NK1 antagonist transport efficiency to the central nervous system using a h-NK1 receptor binding assay (brain extract after i.v. dosing of rats)
# Conditions: 5 min; compound extracted from brain of male SD rats 5 min after i.v. injection at the dose of 1 mg/kg; CHO cell membranes expressing h-NK1; read-out: inhibition rate of 125I-BH-Substance P binding to h-NK1 receptors
# Description: A. Evaluation of NK1 Antagonist Transport Efficiency to the Cental Nervous System using a h-NK1 Receptor Binding Assay
# (1) Administration of Test Compound and Extraction of the Compound from Brain
# Male SD rats were given an i.v. injection of a solution containing a test compound (1 mg/kg). 5 Min later the animals were anesthetized by ether, bled and perfused through the aorta ascendens with 20 ml of saline. The brain was rapidly removed, weighed and homogenized in 4 vol. ice-cold distilled water by using Polytoron (KINEMATICA). To extract the test compound, 500 μl of the homogenate, 100 μl of methanol, 500 μl of 0.1 N NaOH and 4 ml of ethyl acetate were mixed by shaking for 10 min at room temperature. The organic phase (2.5 ml) was recovered by centrifugation at 3,000 rpm for 10 min, dried and dissolved in dimethyl sulfoxide.
# (2) h-NK1 Receptor Binding Assay
# (a) Crude CHO Cell Membrane Preparation
# CHO cells permanently expressing h-NK1 receptors were harvested and homogenized with a Dounce homogenizer at 4° C. in a buffer (0.25 M sucrose, 25 mM Tris-HCl (pH 7.4), 10 mM MgCl2, 1 mM EDTA, 5 μg/ml p-APMSF). The homogenate was centrifuged (500×g, 10 min), and the pellet was resuspended in the same buffer, homogenized, and centrifuged. The two supernatants were combined and centrifuged (100,000×g, 1 hour). The crude cell membranes thus isolated were resuspended in a buffer (25 mM Tris-HCl (pH 7.4), 10 mM MgCl2, 1 mM. EDTA, 5 μg/ml p-APMSF) and stored at −80° C. until use.
# (b) ^125I-BH-Substance P Binding to the Prepared Membrane
# Cell membranes (6 μg/ml) were incubated with ^125I-BH-Substance P (0.1 nM) with or without the extracted compounds in 0.25 ml of a medium (50 mM Tris-HCl (pH 7.4), 5 mM MnCl2, 20 μg/ml chymostatin, 40 μg/ml bacitracin, 4 μg/ml leupeptin, 5 μg/ml p-APMSF, 200 μg/ml BSA) at 22° C. for 90 min. At the end of the incubation period, the contents were quickly filtered through a Blue Mat 11740 filter (pretreated with 0.1% polyethylenimine for 3 hours prior to use) by using SKATRON Cell Harvester. The filter was then washed with a washing buffer (50 mM Tris-HCl (pH 7.4), 5 mM MnCl2). The radioactivity was counted by using an auto gamma counter (Packard RIASTAR 5420A). All data presented are specific binding defined as that displaceable by 3 μM unlabeled Substance P.
# T1 sequence (P25103 whole entry): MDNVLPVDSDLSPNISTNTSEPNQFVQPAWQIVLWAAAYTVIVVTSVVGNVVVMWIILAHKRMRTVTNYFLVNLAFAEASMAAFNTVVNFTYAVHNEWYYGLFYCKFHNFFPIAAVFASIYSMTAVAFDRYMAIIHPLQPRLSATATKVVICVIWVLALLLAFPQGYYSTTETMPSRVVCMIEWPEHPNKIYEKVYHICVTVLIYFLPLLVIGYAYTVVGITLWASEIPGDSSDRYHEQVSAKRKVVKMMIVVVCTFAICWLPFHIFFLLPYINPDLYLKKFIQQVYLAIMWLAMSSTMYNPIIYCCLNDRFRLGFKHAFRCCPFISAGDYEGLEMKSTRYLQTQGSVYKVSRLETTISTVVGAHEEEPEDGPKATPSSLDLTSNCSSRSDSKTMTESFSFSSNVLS
row,inhibition at 1 mg/kg [%],Compound
1,> 80,"Cc1ccc(C[C@@H]2CN(CC#CCN3CCOC[C@@H]3CF)CCN2C(=O)c2cc(C(F)(F)F)cc(C(F)(F)F)c2)cc1C [70-(1), (2R)-1-[3,5-Bis(trifluoromethyl)benzoyl]-2-(3,4-dimethylbenzyl)-4-[4-((3R)-3-fluoromethylmorpholino)-2-butynyl]piperazine dihydrochloride]"

# Tested on: not given
# Assay: not given
# Conditions: not given
row,melting point,Compound
1,180 to 190 °C,Cl.Cl.O=C(c1cc(C(F)(F)F)cc(C(F)(F)F)c1)N1CCN(CC#Cc2cccnc2)C[C@H]1Cc1c[nH]c2ccccc12
2,140 to 150 °C,Cl.Cl.O=C(c1cc(C(F)(F)F)cc(C(F)(F)F)c1)N1CCN(CC#Cc2cccnc2)C[C@H]1Cc1ccc2ccccc2c1
3,130 to 150 °C,Cl.Cl.O=C(c1cc(C(F)(F)F)cc(C(F)(F)F)c1)N1CCN(C/C=C\c2cccnc2)C[C@H]1Cc1ccc2ccccc2c1
4,138 to 148 °C,Cl.Cl.O=C(c1cc(C(F)(F)F)cc(C(F)(F)F)c1)N1CCN(CCCc2cccnc2)C[C@H]1Cc1ccc2ccccc2c1
5,128 °C (dec.),Cc1ccc(C[C@@H]2CN(CC#CCN3CCSCC3)CCN2C(=O)c2cc(Cl)cc(Cl)c2)cc1C.Cl.Cl
6,175 °C (dec.),Cl.Cl.O=C(c1cc(Cl)cc(Cl)c1)N1CCN(CC#CCN2CCSCC2)C[C@H]1Cc1c[nH]c2ccccc12
7,165 °C (dec.),Cl.Cl.O=C(c1cc(Cl)cc(Cl)c1)N1CCN(CC#CCN2CCOCC2)C[C@H]1Cc1c[nH]c2ccccc12
8,171 °C (dec.),Cl.Cl.O=C(c1cc(Cl)cc(Cl)c1)N1CCN(CC#CCN2CCOCC2)C[C@H]1Cc1ccc2ccccc2c1
9,172 °C (dec.),Cl.Cl.O=C(c1cc(Cl)cc(Cl)c1)N1CCN(CC#CCN2CCSCC2)C[C@H]1Cc1ccc(C(F)(F)F)cc1
10,186 °C (dec.),Cl.Cl.O=C(c1cc(Cl)cc(Cl)c1)N1CCN(CC#CCN2CCOCC2)C[C@H]1Cc1ccc(C(F)(F)F)cc1
11,160 to 170 °C,COc1ccc(C#CCN2CCN(C(=O)c3cc(C(F)(F)F)cc(C(F)(F)F)c3)[C@H](Cc3ccc(C)c(C)c3)C2)cn1.Cl.Cl
12,183 to 189 °C,COc1ccc(C#CCN2CCN(C(=O)c3cc(C(F)(F)F)cc(C(F)(F)F)c3)[C@H](Cc3c[nH]c4ccccc34)C2)cn1.Cl.Cl
13,120 to 130 °C,Cc1ccc(C[C@@H]2CN(CCCc3ccccn3)CCN2C(=O)c2cc(C(F)(F)F)cc(C(F)(F)F)c2)cc1C.Cl.Cl
14,150 to 160 °C,Cl.Cl.O=C(c1cc(C(F)(F)F)cc(C(F)(F)F)c1)N1CCN(CCCc2cccnc2)C[C@H]1Cc1c[nH]c2ccccc12
15,140 to 145 °C,Cl.Cl.O=C(c1cc(C(F)(F)F)cc(C(F)(F)F)c1)N1CCN(CCCCc2cccnc2)C[C@H]1Cc1c[nH]c2ccccc12
16,125 to 138 °C,Cc1ccc(C[C@@H]2CN(CC#CCN3CCOC[C@@H]3CC(C)C)CCN2C(=O)c2cc(C(F)(F)F)cc(C(F)(F)F)c2)cc1C.Cl.Cl
17,162 to 167 °C,COc1ccncc1C#CCN1CCN(C(=O)c2cc(C(F)(F)F)cc(C(F)(F)F)c2)[C@H](Cc2c[nH]c3ccccc23)C1.Cl.Cl
18,150 to 153 °C,COc1ccncc1C#CCN1CCN(C(=O)c2cc(C(F)(F)F)cc(C(F)(F)F)c2)[C@H](Cc2ccc(C)c(C)c2)C1.Cl.Cl
19,165 to 170 °C,COc1ccncc1CCCN1CCN(C(=O)c2cc(C(F)(F)F)cc(C(F)(F)F)c2)[C@H](Cc2c[nH]c3ccccc23)C1.Cl.Cl
20,159 to 168 °C,COc1ccncc1CCCN1CCN(C(=O)c2cc(C(F)(F)F)cc(C(F)(F)F)c2)[C@H](Cc2ccc(C)c(C)c2)C1.Cl.Cl
21,190 to 195 °C,Cl.Cl.Nc1ccc(C#CCN2CCN(C(=O)c3cc(C(F)(F)F)cc(C(F)(F)F)c3)[C@H](Cc3c[nH]c4ccccc34)C2)cn1
22,183 to 189 °C,Cc1ccc(C[C@@H]2CN(CC#Cc3ccc(N)nc3)CCN2C(=O)c2cc(C(F)(F)F)cc(C(F)(F)F)c2)cc1C.Cl.Cl
23,170 to 174 °C,Cc1ccc(C[C@@H]2CN(C/C=C\c3cccnc3)CCN2C(=O)c2cc(C(F)(F)F)cc(C(F)(F)F)c2)cc1C.Cl.Cl

row,melting point,Compound
1,127 to 137 °C,COc1ccc(CCCN2CCN(C(=O)c3cc(C(F)(F)F)cc(C(F)(F)F)c3)[C@H](Cc3ccc(C)c(C)c3)C2)cn1.Cl.Cl
2,195 to 200 °C,COc1ccc(CCCN2CCN(C(=O)c3cc(C(F)(F)F)cc(C(F)(F)F)c3)[C@H](Cc3c[nH]c4ccccc34)C2)cn1.Cl.Cl
3,155 to 160 °C,Cl.Cl.O=C(c1cc(C(F)(F)F)cc(C(F)(F)F)c1)N1CCN(CCCCc2ccccn2)C[C@H]1Cc1c[nH]c2ccccc12
4,73 to 75 °C,Cc1ccc(C[C@@H]2CN(CCCn3cccn3)CCN2C(=O)c2cc(C(F)(F)F)cc(C(F)(F)F)c2)cc1C.Cl
5,160 to 166 °C,Cl.Cl.O=C(c1cc(C(F)(F)F)cc(C(F)(F)F)c1)N1CCN(CC#Cc2ccccn2)C[C@H]1Cc1c[nH]c2ccccc12
6,175 to 185 °C,Cl.Cl.O=C(c1cc(C(F)(F)F)cc(C(F)(F)F)c1)N1CCN(CCC#Cc2cccnc2)C[C@H]1Cc1c[nH]c2ccccc12
7,155 to 160 °C,CCOC[C@H]1COCCN1CC#CCN1CCN(C(=O)c2cc(C(F)(F)F)cc(C(F)(F)F)c2)[C@H](Cc2ccc(C)c(C)c2)C1.Cl.Cl
8,130 to 150 °C,Cc1ccc(C[C@@H]2CN(CC#CCN3CCOC[C@@H]3CO)CCN2C(=O)c2cc(C(F)(F)F)cc(C(F)(F)F)c2)cc1C.Cl.Cl
9,240 to 250 °C,COC[C@@H]1COCCN1C/C=C/CN1CCN(C(=O)c2cc(C(F)(F)F)cc(C(F)(F)F)c2)[C@H](Cc2ccc(C)c(C)c2)C1.Cl.Cl
10,150 to 160 °C,Cc1ccc(C[C@@H]2CN(CC#CCN3CCOC[C@H]3C(=O)N(C)C)CCN2C(=O)c2cc(C(F)(F)F)cc(C(F)(F)F)c2)cc1C.Cl.Cl
11,176 to 180 °C,CC[C@@H]1COCCN1CC#CCN1CCN(C(=O)c2cc(C(F)(F)F)cc(C(F)(F)F)c2)[C@H](Cc2c[nH]c3ccccc23)C1.Cl.Cl
12,190 to 195 °C,COC[C@H]1CCCN1CC#CCN1CCN(C(=O)c2cc(C(F)(F)F)cc(C(F)(F)F)c2)[C@H](Cc2c[nH]c3ccccc23)C1.Cl.Cl
13,80 to 100 °C,COC[C@@H]1COCCN1CCCN1CCN(C(=O)c2cc(C(F)(F)F)cc(C(F)(F)F)c2)[C@H](Cc2ccc(C)c(C)c2)C1.Cl.Cl
14,150 to 154 °C,COCC1CN(CCN2CCN(C(=O)c3cc(C(F)(F)F)cc(C(F)(F)F)c3)[C@H](Cc3ccc(C)c(C)c3)C2)CCO1.Cl.Cl (stereo partly shown)
15,175 to 185 °C,COC[C@H]1COCCN1CCN1CCN(C(=O)c2cc(C(F)(F)F)cc(C(F)(F)F)c2)[C@H](Cc2c[nH]c3ccccc23)C1.Cl.Cl
16,130 to 150 °C,COC[C@@H]1COCCN1CCN1CCN(C(=O)c2cc(C(F)(F)F)cc(C(F)(F)F)c2)[C@H](Cc2c[nH]c3ccccc23)C1.Cl.Cl
17,170 to 180 °C,C[C@H]1COC[C@H](C)N1CCN1CCN(C(=O)c2cc(C(F)(F)F)cc(C(F)(F)F)c2)[C@H](Cc2c[nH]c3ccccc23)C1.Cl.Cl
18,170 °C,COc1cccc(CC2CN(CC#CCN3CCOCC3(C)C)CCN2C(=O)c2cc(C(F)(F)F)cc(C(F)(F)F)c2)c1OC.Cl.Cl (stereo not shown)
19,215 to 230 °C,CNc1cc(C(=O)N2CCN(CC#CCN3CCOCC3(C)C)C[C@H]2Cc2c[nH]c3ccccc23)cc(C(F)(F)F)c1.Cl.Cl
20,205 to 210 °C,CN(C)c1cccc(CC2CN(CC#CCN3CCOCC3(C)C)CCN2C(=O)c2cc(C(F)(F)F)cc(C(F)(F)F)c2)c1.Cl.Cl.Cl (stereo not shown)
21,192 to 195 °C,"CNc1cccc(CC2CN(CC#CCN3CCOCC3(C)C)CCN2C(=O)c2cc(C(F)(F)F)cc(C(F)(F)F)c2)c1 (stereo not shown) (as salt: hydrochloride) [Example 93, 1-[3,5-Bis(trifluoromethyl)benzoyl]-4-[4-(3,3-dimethylmorpholino)-2-butynyl]-2-[3-(N-methylamino)benzyl]piperazine]"
22,223 to 230 °C,"Cc1ccc(C[C@@H]2CN(Cc3cnn(CC(=O)O)c3)CCN2C(=O)c2cc(C(F)(F)F)cc(C(F)(F)F)c2)cc1C [Example 47, (2R)-1-[3,5-bis(trifluoromethyl)benzoyl]-4-[[1-(carboxymethyl)-1H-pyrazol-4-yl]methyl]-2-(3,4-dimethylbenzyl)piperazine]"
